Entries after “also recorded” stand apart in the source; their conditions may differ.
Key:
mice = test: Marble burying test; assay type: in vivo; details: for Effects on marble burying relative to racemic mirtazapine: Example 4, FIG. 2
Wistar-Kyoto (WKY) rats = test: Cued fear conditioning / extinction training, freezing behavior in WKY rats; assay type: in vivo, rat; details: for Freezing behavior, direction of change vs. vehicle: WKY rats, across days 1 and 3
Excerpt: Inbred Wistar-Kyoto (WKY) rats have been used as models of several behavioral deficits, such as stress vulnerability and sleep disturbance.
Fear memories are crucial in psychiatric conditions such as PTSD. Pavlovian fear conditioning (FC) test is a widely-used behavioral assay in rodents for measurement of aversive learning and memory through learned associations between aversive stimulus (a mild electric shock) and a specific cue (e.g., a tone; cued conditioning) or a context in which electric shock had occurred (contextual conditioning). Once the association is established, the conditioned stimulus (CS, i.e. tone or context) can induce fear response in a similar manner to unconditioned stimulus (US, i.e. electric shock). However, if CS repeatedly presents without combination of US, extinction occurs in normal animals. Fear extinction is usually regarded as a new inhibitory learning after repeated or prolonged CS presentations without the US, which causes a gradual decrease in the magnitude and/or frequency of the conditioned response (i.e. freezing response in FC test). Deficits in such inhibitory learning can be regarded as a hallmark of clinical PTSD.
Young adult (about 7 weeks of age), male WKY and Wistar rats purchased from Charles River Laboratory were used in this study. Upon receipt, animals were group-housed (2 per cage) and acclimated for at least 7 days. All rats were examined, handled, and weighed prior to initiation of the study to assure adequate health and suitability. During the course of the study, 12/12 light/dark cycles were maintained. The room temperature was maintained between 20 and 23° C. with a relative humidity maintained around 50%. Rats were randomly assigned to each treatment group. All testing was conducted during the animals' light cycle.
When combined with DSC, the combinations were given in a cocktail 30 minute prior to extinction test • D-CPP-ene (5 mg/kg) was be dissolved in acidified saline and administered s.c 30 min prior to extinction test at a dose volume of 2 ml/kg • Lurasidone (Lur, 0.2 mg/kg was dissolved in saline and administered IP 30 min prior to test at a dose volume of 1 ml/kg • Quetiapine (QTP, 10 mg/kg) was dissolved in acidified saline and administered s.c 30 min prior to test at a dose volume of 1 ml/kg
The experiment was conducted in the fear conditioning system manufactured by Coulbourn Instruments (PA, USA). Animal's body movements are captured with a video system and the FreezeFrame software, and freezing is analyzed automatically by the FreezeView software (Coulbourn Instruments, PA, USA).
Fear Conditioning Training: Animals were exposed to 5 CS-US pairings of a 10 sec tone (70 dB conditioned stimulus/CS) co-terminating with a brief electric shock (0.5 mA for 1.0 sec unconditioned stimulus/US). The 5 CS-US pairings are separated by a 60 sec interval with the first CS at 120 s. The rats stage in boxes for one minute after the last shock before being moved out.
Extinction training: Extinction training was conducted twice at 24 and 72 hr post FC training. A cued FC extinction paradigm was applied. The extinction training was conducted in the “cylinder”, a changed context which is different from the boxes of FC training. The extinction training lasted 32-40 min, including 8-10 identical bins. Each bin includes a 2 min tone period followed by a 2 min no-tone period (inter-trial interval, ITI).
Percent freezing during bins 7-8 of extinction trainings (24 hr and 72 hr) was used to evaluate effectiveness of treatment. Data were analyzed by […] analyses of variance (ANOVA), with treatment/group and extinction stage (cues or bins) set as factors. Fisher LSD method was used in Post hoc comparisons if applicable.

[1] = Pharmacokinetics of DCS in rodent, plasma level by UPLC/MS/MS; assay type: in vivo, C57BL/6J mice
Excerpt: Male C57BL/6J mice (8 weeks old) from Jackson Laboratories (Bar Harbor, Maine) were used. Upon receipt, mice were assigned unique identification numbers (tail marked) and were group housed in OPTImice cages. All animals were acclimated to the colony room for 1 week prior to testing. During the period of acclimation, animals were examined on a regular basis, handled, and weighed to assure adequate health and suitability. Animals were maintained on a 12/12 light/dark cycle. The room temperature was maintained between 20 and 23° C. with a relative humidity maintained between 30% and 70%. Chow and water were provided ad libitum for the duration of the study. All testing was performed during the animal's light cycle phase.
Sample were collected at 30, 60 and 120 min from separate animals. Mean plasma levels across the 30-120 min timepoint was used for analysis. At each time point, trunk blood was collected in tubes containing K2EDTA and kept on ice for short-term storage. Within 15 minutes of blood collection, tubes were centrifuged for 10 minutes at 10,000 RPM in a refrigerated centrifuge. The supernatant (plasma) was extracted and transferred to pre-labeled tubes on dry ice. Samples were stored at approximately −80° C. until analyses.
Analysis of DCS in plasma and brain samples were performed utilizing an UPLC/MS/MS system consisted of an Acquity UPLC chromatographic system and a Quattro Premier XE triple quad mass spectrometer, both from Waters.
The range of standards utilized was 1.0-1000 ng/mL. Plasma samples were prepared in the same manner but with 10 μL of sample and 90 μL of the internal standard mix to provide 100 μL of sample after dilution for triplicate analysis.
The internal standards D9-Ach (parent 154.95DA to fragment 86.7DA) was incorporated into the samples to correct for sample matrix and instrument variability providing a more robust data set.

[2] = Pharmacokinetics of D-cycloserine in humans after 500 mg (Zhu et al. 2001); assay type: in vivo; details: corresponding to AUC over 24 hr
Excerpt: Critical parameters include maximum (peak) concentration achieved (Cmax), time to maximum concentration (Tmax) and area under the curve (AUC) during the dosing interval.

[3] = Pharmacokinetics of 250 mg PO D-cycloserine every 12 hrs in healthy volunteers (Park et al. 2015); assay type: in vivo, humans; details: 250 mg PO every 12 hrs; corresponding to AUC over 12 hrs
NMDAR [4] = target: T1, NMDAR (Homo sapiens, UniProt Q05586); test: D-cycloserine plasma concentrations linked to agonist, antagonist and toxic effects; summary of human PK studies; assay type: in vivo, humans; details: consistent finding of human PK studies
T1 construct: endogenous in cells; host or cells: human subjects in vivo (neuronal receptors); no isolated protein
Procedure: D-cycloserine is an anti-tuberculosis medication that also acts as a partial glycine-site […] (aka mixed agonist/antagonist). […] Plasma concentrations associated with primarily agonist effects are primarily […]. Plasma concentrations associated with antagonist effects are >25 μg/mi. Increased liability for toxicity is observed at plasma levels >35 μg/mL.
Accordingly, the daily dose for producing such plasma levels will necessarily be above 500 mg/day, as described above.

NMDAR [5] = target: T1, NMDAR; details: cited from earlier work
C57BL/6J mice = test: Open field (OF) test, locomotor activity; details: for Locomotor activity vs. vehicle: 30 min after administration; for Locomotor activity, Mean distance travelled over 30 min: C57BL/6J mice

Question: Which “Effects on marble burying relative to racemic mirtazapine” value (mice) does the source give for `CN1CCN2c3ncccc3Cc3ccccc3[C@@H]2C1` [R-mirtazapine, R-(−)-mirtazapine] here?
Answer: less robust

Question: What about the “Number of marbles buried compared to vehicle” value (“Number … compared to vehicle” below) (mice; Example 4, R-mirtazapine 10 mg/kg IP) of the same molecule?
Answer: significantly reduced the number of marbles buried

Question: And the “Number … compared to vehicle” value (mice; Example 4, R-mirtazapine 1, 2.5 and 5 mg/kg IP)?
Answer: did not affect this measure

Question: And the “Relative effects of R- and S-isomers of mirtazapine on marble burying (FIG. 2 legend)” value (mice; R- vs S-isomer)?
Answer: greater effects

Question: With `N[C@@H]1CON=C1O` [D-cycloserine, 3-Isoxazolidinone, 4-amino-, (4R)-(9CI)] as the molecule, how does the “Percentage WKY animals showing freezing behavior >85% of the time in response to cue stimuli across day 1 and 3 following fear conditioning, Mean” value (Wistar-Kyoto (WKY) rats; DCS 30 mg/kg IP 30 min prior to extinction test) read?
Answer: 0.281

Question: What about the “Freezing behavior, direction of change vs. vehicle” value (Wistar-Kyoto (WKY) rats; DCS 30 mg/kg IP) of the same molecule?
Answer: no significant effect on freezing behavior

Question: And the “Percentage WKY animals showing freezing behavior >85% of the time in response to cue stimuli across day 1 and 3 following fear conditioning, Mean” value (Wistar-Kyoto (WKY) rats; DCS 300 mg/kg IP 30 min prior to extinction test)?
Answer: 0.113

Question: And the “Freezing behavior, direction of change vs. vehicle” value (Wistar-Kyoto (WKY) rats; DCS 300 mg/kg IP, listed as DCS)?
Answer: significant reduction in freezing behavior; also recorded: Decrease

Question: What about the “Effect of high-dose DCS on freezing when added to lurasidone” value (Wistar-Kyoto (WKY) rats; DCS 300 mg/kg added to lurasidone 0.2 mg/kg, p=0.09) of the same molecule?
Answer: tended to decrease freezing

Question: What about the “Effect of high-dose DCS on freezing in combination with quetiapine” value (Wistar-Kyoto (WKY) rats; DCS 300 mg/kg with quetiapine 10 mg/kg, p=0.3) of the same molecule?
Answer: without statistical effect

Question: And the “Number … compared to vehicle” value (mice; Example 3, D-cycloserine 30 mg/kg IP 30 min prior to test)?
Answer: did not affect this measure

Question: What about the “Number … compared to vehicle” value (mice; Example 3, D-cycloserine 300 mg/kg IP 30 min prior to test) of the same molecule?
Answer: did not affect this measure

Question: What about the DCS plasma level ([1]; 30 mg/kg IP, mice, mean across 30-120 min, difference from 25 not significant (p=0.2)) of the same molecule?
Answer: below 25 microgram/mL

Question: What about the DCS plasma level ([1]; 100 mg/kg and above IP, mice, mean across 30-120 min, p<0.01) of the same molecule?
Answer: > 25 microgram/mL

Question: What about the DCS plasma level ([1]; 300 mg/kg DCS as in prior examples) of the same molecule?
Answer: > 25 micrograms/mL

Question: What about the “median sustained plasma level” value [2] of the same molecule?
Answer: 8.9 microgram/mL

Question: What about the mean plasma level [3] of the same molecule?
Answer: 20. 2 microgram/mL

Question: What about the “Sustained plasma level following 500 mg administration” value (NMDAR [4]) of the same molecule?
Answer: below 25 microgram/mL

Question: What about the “Plasma concentrations associated with antagonist effects” value (NMDAR [5]; NMDAR glycine site) of the same molecule?
Answer: > 25 μg/mi

Question: What about the “Plasma levels at which increased liability for toxicity is observed” value (NMDAR [5]; in vivo) of the same molecule?
Answer: > 35000 ng/mL

Question: What about the “Locomotor activity vs. vehicle” value (C57BL/6J mice; D-cycloserine 30 mg/kg, p=0.5) of the same molecule?
Answer: not significantly affected

Question: And the “Locomotor activity vs. vehicle” value (C57BL/6J mice; D-cycloserine 300 mg/kg, p<0.001)?
Answer: significantly increased

Question: And the “Locomotor activity vs. vehicle” value (C57BL/6J mice; D-cycloserine 1000 mg/kg, p<0.001)?
Answer: significantly increased

Question: What about the “Locomotor activity, Mean distance travelled over 30 min” value (C57BL/6J mice; DCS 30 mg/kg IP) of the same molecule?
Answer: 4432.1

Question: What about the “Locomotor activity, Mean distance travelled over 30 min” value (C57BL/6J mice; DCS 300 mg/kg IP) of the same molecule?
Answer: 7588.5

Question: With `O=C1[C@@H]2[C@H]3CC[C@H](C3)[C@@H]2C(=O)N1C[C@@H]1CCCC[C@H]1CN1CCN(c2nsc3ccccc23)CC1` [Lurasidone] as the molecule, how does the “Percentage WKY animals showing freezing behavior >85% of the time in response to cue stimuli across day 1 and 3 following fear conditioning, Mean” value (Wistar-Kyoto (WKY) rats; lurasidone 0.2 mg/kg IP 30 min prior to test) read?
Answer: 0.531

Question: Which “Number … compared to vehicle” value (mice; Example 3, mirtazapine 5.5 mg/kg IP 30 min prior to test) does the source give for `CN1CCN2c3ncccc3Cc3ccccc3C2C1` (racemic) [Mirtazapine] here?
Answer: significantly reduced the number of marbles buried

Question: And the “Number … compared to vehicle” value (mice; Example 4, mirtazapine 1, 2.5, 5 and 10 mg/kg IP)?
Answer: significantly reduced the number of marbles buried

Question: Which “Percentage WKY animals showing freezing behavior >85% of the time in response to cue stimuli across day 1 and 3 following fear conditioning, Mean” value (Wistar-Kyoto (WKY) rats; quetiapine 10 mg/kg s.c. 30 min prior to test) does the source give for `OCCOCCN1CCN(C2=Nc3ccccc3Sc3ccccc32)CC1` [QTP, Quetiapine] here?
Answer: 0.625

Question: What about the “Freezing behavior, direction of change vs. vehicle” value (Wistar-Kyoto (WKY) rats; quetiapine 10 mg/kg s.c.) of the same molecule?
Answer: Increase

Question: And the “Freezing behavior, direction of change vs. vehicle” value (Wistar-Kyoto (WKY) rats; quetiapine 10 mg/kg s.c., listed as quetiapine)?
Answer: tended to increase freezing behavior

Question: For `CN1CCN2c3ncccc3Cc3ccccc3[C@H]2C1` [S-mirtazapine, S-(+)-mirtazapine], which “Effects on marble burying relative to racemic mirtazapine” value (mice) is on record?
Answer: significantly more robust

Question: What about the “Number … compared to vehicle” value (mice; Example 4, S-mirtazapine 1, 2.5, 5, 10 mg/kg IP) of the same molecule?
Answer: significantly reduced the number of marbles buried

Question: What about the “Marble burying in the absence and presence of DCS” value (mice; Example 4, S-mirtazapine with or without DCS) of the same molecule?
Answer: floor level effects

Question: Which results are given for `O=C(O)[C@H]1CN(C/C=C/P(=O)(O)O)CCN1` [DCPPene, D-(E)-4-(3-phosphonoprop-2-enyl)piperazine-2-carboxylic acid]?
Answer: Percentage WKY animals showing freezing behavior >85% of the time in response to cue stimuli across day 1 and 3 following fear conditioning, Mean (Wistar-Kyoto (WKY) rats; D-CPP-ene 5 mg/kg s.c. 30 min prior to extinction test): 0.625; Freezing behavior, direction of change vs. vehicle (Wistar-Kyoto (WKY) rats; D-CPP-ene 5 mg/kg s.c.): Increase; Freezing behavior, direction of change vs. vehicle (Wistar-Kyoto (WKY) rats; D-CPP-ene 5 mg/kg s.c., listed as D-CPPene): tended to increase freezing behavior

Question: With `Fc1ccc([C@@H]2CCNC[C@H]2COc2ccc3c(c2)OCO3)cc1` [Paroxetine] as the molecule, how does the “Number … compared to vehicle” value (mice; Example 3, paroxetine 5 mg/kg IP 30 min prior to test) read?
Answer: significantly reduced the number of marbles buried

Question: And the “Number … compared to vehicle” value (mice; Example 4, paroxetine 5 mg/kg IP)?
Answer: significantly reduced the number of marbles buried

Question: For `CN[C@H]1CC[C@@H](c2ccc(Cl)c(Cl)c2)c2ccccc21` [Sertraline], which “Percentage WKY animals showing freezing behavior >85% of the time in response to cue stimuli across day 1 and 3 following fear conditioning, Mean” value (Wistar-Kyoto (WKY) rats; sertraline 20 mg/kg IP 30 min prior to test) is on record?
Answer: 0.156

Question: And the “Freezing behavior, direction of change vs. vehicle” value (Wistar-Kyoto (WKY) rats; sertraline 20 mg/kg IP)?
Answer: Decrease

Question: And the “Freezing behavior, direction of change vs. vehicle” value (Wistar-Kyoto (WKY) rats; sertraline 20 mg/kg IP, listed as sertraline)?
Answer: significant reduction in freezing behavior
